# Experimental data published in ChEMBL document CHEMBL3596162, “Biaryls as potent, tunable dual neurokinin 1 receptor antagonists and serotonin transporter inhibitors” (Bioorg Med Chem Lett, 2015).
# Columns and labels:
# HEK293 = assay: Selectivity index, ratio of IC50 for gerbil SERT expressed in HEK293 cell membranes to IC50 for gerbil NK1 receptor expressed in HEK293 cell membranes; type: cell-based; conditions: Gerbillinae
# Substance-P receptor [1] = target: Substance-P receptor (Meriones unguiculatus, UniProt Q5DUB1); assay: Displacement of [125I]-substance P from gerbil NK1 receptor expressed in HEK293 cell membranes incubated for 30 mins by liquid scintillation counting method; set-up: species or system Gerbillinae
# [2] = Displacement of [3H]-citalopram from gerbil SERT expressed in HEK293 cell membranes incubated for 60 mins by liquid scintillation counting method; set-up: species or system Gerbillinae
# Gerbillinae [3] = assay: In-vivo receptor occupancy at SERT in gerbil at 30 mg/kg, po measured after 4 hrs; type: functional
# [4] = Ratio of drug concentration in brain to plasma of gerbil foot tap model at 10 mg/kg, po; type: ADME, organism-based; conditions: gerbillinae, read-out: BPR
# Gerbillinae [5] = assay: In-vivo receptor occupancy at NK1 receptor in gerbil at 3 to 30 mg/kg, po measured after 4 hrs; type: functional
# Gerbillinae [6] = assay: In-vivo receptor occupancy at SERT in gerbil at 3 to 30 mg/kg, po measured after 4 hrs; type: functional, organism-based
# [7] = Drug concentration in brain of gerbil foot tap model at 10 mg/kg, po; type: ADME, organism-based; conditions: gerbillinae, in vivo, read-out: Drug uptake
# Substance-P receptor [8] = target: Substance-P receptor (Homo sapiens, UniProt P25103); assay: Binding affinity to human NK1 receptor
# Gerbillinae [9] = assay: In-vivo receptor occupancy at SERT in gerbil at 3 mg/kg, po measured after 4 hrs; type: functional
# [10] = Plasma concentration in gerbil foot tap model at 10 mg/kg, po; type: ADME, organism-based; conditions: gerbillinae, in vivo
# Gerbillinae [11] = assay: Inhibition of foot tapping in gerbil foot tap model at 10 mg/kg, po and treated with 3 pmol, icv GR-73632 and measured for 5 mins after animal regains righting reflex; type: functional
# Sequence of Substance-P receptor (Meriones unguiculatus, UniProt Q5DUB1) (Q5DUB1 whole entry): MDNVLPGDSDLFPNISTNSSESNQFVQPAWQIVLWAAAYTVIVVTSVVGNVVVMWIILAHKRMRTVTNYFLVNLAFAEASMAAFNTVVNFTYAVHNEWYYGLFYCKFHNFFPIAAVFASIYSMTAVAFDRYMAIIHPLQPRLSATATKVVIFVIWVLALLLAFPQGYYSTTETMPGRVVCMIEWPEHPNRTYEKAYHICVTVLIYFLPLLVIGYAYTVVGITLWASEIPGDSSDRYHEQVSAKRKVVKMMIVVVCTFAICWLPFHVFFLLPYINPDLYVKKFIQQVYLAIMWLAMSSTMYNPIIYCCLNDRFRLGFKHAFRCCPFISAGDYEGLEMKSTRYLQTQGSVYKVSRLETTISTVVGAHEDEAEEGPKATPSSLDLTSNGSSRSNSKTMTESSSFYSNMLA
# Sequence of Substance-P receptor (Homo sapiens, UniProt P25103) (P25103 whole entry): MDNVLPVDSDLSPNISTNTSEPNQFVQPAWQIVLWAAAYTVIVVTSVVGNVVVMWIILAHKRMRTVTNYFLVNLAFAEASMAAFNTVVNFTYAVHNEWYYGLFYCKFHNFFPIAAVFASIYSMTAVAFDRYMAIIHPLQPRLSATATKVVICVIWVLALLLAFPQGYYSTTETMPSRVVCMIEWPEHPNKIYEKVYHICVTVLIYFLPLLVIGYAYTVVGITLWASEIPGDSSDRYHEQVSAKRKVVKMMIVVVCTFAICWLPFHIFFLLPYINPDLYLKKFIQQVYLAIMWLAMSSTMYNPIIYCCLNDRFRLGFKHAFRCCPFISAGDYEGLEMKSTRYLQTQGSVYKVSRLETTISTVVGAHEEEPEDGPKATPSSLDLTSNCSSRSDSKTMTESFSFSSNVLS
Compound,Ratio IC50 (HEK293),IC50 (Substance-P receptor [1]) [nM],IC50 [2] [nM],further results
FC(F)(F)c1cc(COCC2(c3ccccc3)CCNCC2)cc(-c2ccc3c(c2)OCO3)c1,6,7.1,45,
COc1ccccc1-c1cc(COCC2(c3ccccc3)CCNCC2)cc(C(F)(F)F)c1,0.1,54,4.2,
C[C@@H](O[C@H]1OCCN(Cc2n[nH]c(=O)[nH]2)[C@H]1c1ccc(F)cc1)c1cc(C(F)(F)F)cc(C(F)(F)F)c1 [APREPITANT],,0.09,,
CC(C)N1CCC(COCc2cc(-c3ccc(C#N)cc3)cc(C(F)(F)F)c2)(c2ccccc2)CC1,1200,0.39,450,
Cc1ccc(-c2cc(COCC3(c4ccccc4)CCNCC3)cc(C(F)(F)F)c2)cc1,0.8,8.4,6.4,
COc1ccc(-n2cnnn2)cc1CO[C@H]1CCCN[C@H]1c1ccccc1,,0.05,,
Cc1nnnn1-c1cc(COCC2(c3ccccc3)CCNCC2)cc(C(F)(F)F)c1,0.4,180,70,
Fc1cccc(-c2cc(COCC3(c4ccccc4)CCNCC3)cc(C(F)(F)F)c2)c1,1,5,6.3,
FC(F)(F)c1cc(COCC2(c3ccccc3)CCNCC2)cc(-c2ccccc2)c1,0.6,6.3,3.7,
FC(F)(F)c1cc(COCC2(c3ccccc3)CCNCC2)cc(-n2nnnc2C(F)(F)F)c1,0.08,700,57,
O=[N+]([O-])c1cccc(-c2cc(COCC3(c4ccccc4)CCNCC3)cc(C(F)(F)F)c2)c1,0.8,5.2,4.2,
Fc1ccccc1-c1cc(COCC2(c3ccccc3)CCNCC2)cc(C(F)(F)F)c1,0.3,23,7.6,
FC(F)(F)c1ccc(-c2cc(COCC3(c4ccccc4)CCNCC3)cc(C(F)(F)F)c2)cc1,1,30,36,
N#Cc1cc(F)c(-c2cc(COCC3(c4ccccc4)CCNCC3)cc(C(F)(F)F)c2)cc1F,4,0.91,3.7,
Oc1cccc(-c2cc(COCC3(c4ccccc4)CCNCC3)cc(C(F)(F)F)c2)c1,2,13,27,
CN(C)c1ccc(-c2cc(COCC3(c4ccccc4)CCNCC3)cc(C(F)(F)F)c2)cc1,0.2,18,3.5,
N#Cc1ccc(-c2cc(COCC3(c4ccccc4)CCNCC3)cc(C(F)(F)F)c2)cc1F,8,1.1,8.9,
FC(F)(F)c1cc(COCC2(c3ccccc3)CCNCC2)cc(-c2nnn[nH]2)c1,0.04,200,8.6,
Fc1ccc(-c2cc(COCC3(c4ccccc4)CCNCC3)cc(C(F)(F)F)c2)cc1,0.7,2.2,1.5,
Nc1cccc(-c2cc(COCC3(c4ccccc4)CCNCC3)cc(C(F)(F)F)c2)c1,1,25,30,
FC(F)(F)c1cc(COCC2(c3ccccc3)CCNCC2)cc(-c2ccco2)c1,0.4,47,18,
COc1ccc(-c2cc(COCC3(c4ccccc4)CCNCC3)cc(C(F)(F)F)c2)cc1,16,0.93,15,
N#Cc1ccc(-c2cc(COCC3(c4ccccc4)CCNCC3)cc(C(F)(F)F)c2)cc1Cl,3,1.1,3.1,
FC(F)(F)c1cc(COCC2(c3ccccc3)CCNCC2)cc(-c2cccc3ccccc23)c1,0.2,540,120,
FC(F)(F)c1cc(COCC2(c3ccccc3)CCNCC2)cc(-c2ccc3ccccc3c2)c1,0.9,120,110,
Cn1nnc(-c2cc(COCC3(c4ccccc4)CCNCC3)cc(C(F)(F)F)c2)n1,0.3,36,9.6,
CCOc1ccc(-c2cc(COCC3(c4ccccc4)CCNCC3)cc(C(F)(F)F)c2)cc1,4,3.4,14,

Compound,Ratio IC50 (HEK293),IC50 (Substance-P receptor [1]) [nM],IC50 [2] [nM],further results
N#Cc1c(F)cc(-c2cc(COCC3(c4ccccc4)CCNCC3)cc(C(F)(F)F)c2)cc1F,22,0.32,7,
CCN1CCC(COCc2cc(-c3ccc(C#N)cc3)cc(C(F)(F)F)c2)(c2ccccc2)CC1,1700,0.25,420,
FC(F)(F)c1cc(COCC2(c3ccccc3)CCNCC2)cc(-c2ccc(Cl)cc2)c1,0.6,2.8,1.8,
Oc1ccc(-c2cc(COCC3(c4ccccc4)CCNCC3)cc(C(F)(F)F)c2)cc1,8,3.6,27,
O=[N+]([O-])c1ccc(-c2cc(COCC3(c4ccccc4)CCNCC3)cc(C(F)(F)F)c2)cc1,2,3.8,7.3,
COC(=O)c1ccc(-c2cc(COCC3(c4ccccc4)CCNCC3)cc(C(F)(F)F)c2)cc1,1,17,25,
FC(F)(F)c1cc(COCC2(c3ccccc3)CCNCC2)cc(-c2ccccn2)c1,0.2,41,7.4,
COc1ccc(-n2nnnc2C(F)(F)F)cc1CO[C@H]1CCCN[C@H]1c1ccccc1,,0.03,,
FC(F)(F)c1cc(COCC2(c3ccccc3)CCNCC2)cc(-c2ccccc2Cl)c1,0.1,68,6.4,
N#Cc1c(F)c(F)c(-c2cc(COCC3(c4ccccc4)CCNCC3)cc(C(F)(F)F)c2)c(F)c1F,10,4.8,47,
N#Cc1ccc(-c2cc(COCC3(c4ccccc4)CCN(C4CC4)CC3)cc(C(F)(F)F)c2)cc1,1200,1.8,2100,
FC(F)(F)c1cc(COCC2(c3ccccc3)CCNCC2)cc(-c2ccncc2)c1,10,1.6,16,
Cn1nnnc1-c1cc(COCC2(c3ccccc3)CCNCC2)cc(C(F)(F)F)c1,0.8,65,50,
Cc1cccc(-c2cc(COCC3(c4ccccc4)CCNCC3)cc(C(F)(F)F)c2)c1,0.6,24,14,
N#Cc1cccc(-c2cc(COCC3(c4ccccc4)CCNCC3)cc(C(F)(F)F)c2)c1,0.2,49,10,
COc1ccc(-n2nnnc2C)cc1COCC1(c2ccccc2)CCNCC1,0.4,87,37,
N#Cc1ccc(-c2cc(COCC3(c4ccccc4)CCN(Cc4ccccc4)CC3)cc(C(F)(F)F)c2)cc1,400,2,800,
FC(F)(F)c1cc(COCC2(c3ccccc3)CCNCC2)cc(-c2nccs2)c1,0.06,70,4.1,
O=[N+]([O-])c1ccccc1-c1cc(COCC2(c3ccccc3)CCNCC2)cc(C(F)(F)F)c1,0.5,6.5,3.5,
N#Cc1ccc(-c2cc(COCC3(c4ccccc4)CCNCC3)cc(C(F)(F)F)c2)cn1,5,1.9,10,
N#Cc1ccc(-c2cc(COCC3(c4ccccc4)CCNCC3)cc(C(F)(F)F)c2)nc1,0.5,8.1,4,
Cc1ccccc1-c1cc(COCC2(c3ccccc3)CCNCC2)cc(C(F)(F)F)c1,0.1,130,13,
CN1CCC(COCc2cc(-c3ccc(C#N)cc3)cc(C(F)(F)F)c2)(c2ccccc2)CC1,33,0.29,9.5,Occ (Gerbillinae [3]): 84%; Kp [4]: 2.5; Occ (Gerbillinae [5]): 88%; Occ (Gerbillinae [6]): Dose-dependent effect; concentration [7]: 1300 nM; IC50 (Substance-P receptor [8]): 0.2 nM; Occ (Gerbillinae [9]): 11%; concentration [10]: 526 nM; inhibition in vivo at 10 mg/kg (Gerbillinae [11]): 73%
Cc1cc(-c2cc(COCC3(c4ccccc4)CCNCC3)cc(C(F)(F)F)c2)ccc1C#N,2,1.2,2.7,
COc1ccc(-n2nnnc2C)cc1CO[C@H]1CCCN[C@H]1c1ccccc1,,0.05,,
N#Cc1ccc(-c2cc(COCC3(c4ccccc4)CCNCC3)cc(C(F)(F)F)c2)cc1,9,0.45,4,Kp [4]: 0.52; concentration [7]: 190 nM; IC50 (Substance-P receptor [8]): 0.59 nM; concentration [10]: 365 nM; inhibition in vivo at 10 mg/kg (Gerbillinae [11]): 29%
